What all share (type): binding
The target in one experiment is T1, BAZ2B (Homo sapiens, UniProt Q9UIF8).
T1 construct: representative BRDs from other structural subfamilies (family I, PCAF); family III, CREBBP; family IV, BRD9; family V, BAZ2B; made in house
T1 sequence (Q9UIF8 2060-2164 limits assumed): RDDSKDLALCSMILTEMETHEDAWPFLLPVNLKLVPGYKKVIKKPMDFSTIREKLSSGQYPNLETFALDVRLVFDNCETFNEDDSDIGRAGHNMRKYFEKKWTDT
Briefly: Protein stability (thermal) shift assay, BAZ2B. Conditions: compound 10 μM, protein 2 μM; average of triplicate; read-out: ΔTm Shift, BAZ2BA. How it is done: (§1) Thermal melting experiments were carried out using an Mx3005p real time PCR machine (Stratagene). Proteins were buffered in 10 mM HEPES, pH 7.5, 500 mM NaCl and assayed in a 96-well plate at a final concentration of 2 μM in 20 μL volume. Compounds were added at a final concentration of 10 or 100 μM. SYPRO Orange (Molecular Probes) was added as a fluorescence probe at a dilution of 1 in 1000. Excitation and emission filters for the SYPRO-Orange dye were set to 465 and 590 nm, respectively. The temperature was raised with a step of 3 °C per minute from 25 to 96 °C, and fluorescence readings were taken at each interval. The temperature dependence of the fluorescence during the protein denaturation process was approximated by the equation [drawing 1] where ΔuG is the difference in unfolding free energy between the folded and unfolded state, R is the gas constant, and yF and yU are the fluorescence intensity of the probe in the presence of completely folded and unfolded protein, respectively.[65] The baselines of the denatured and native states were approximated by a linear fit. The observed temperature shifts, ΔTm^obs, were recorded as the difference between the transition midpoints of sample and reference wells containing protein without ligand in the same plate and determined by nonlinear least-squares fit. Temperature shifts (ΔTm^obs) for three independent measurements per proteins/compound are summarized in Supporting Information Table S1.

A further experiment concerns the target T2, BRD4(1) (Homo sapiens, UniProt O60885).
T2 construct: made in house
Briefly: Protein stability (thermal) shift assay, BRD4(1). Conditions: compound 10 μM, protein 2 μM; average of triplicate; read-out: ΔTm Shift, BRD4(1). How it is done: as §1

The target in another experiment is T3, PB1(5) (Homo sapiens, UniProt Q86U86).
T3 construct: made in house
Briefly: Protein stability (thermal) shift assay, PB1(5). The note with it: compound 10 μM, protein 2 μM; average of triplicate. How it is done:
as §1

For a further experiment, the target named is T4, BRD2(2) (Homo sapiens, UniProt P25440).
T4 construct: made in house
The experiment can be described thus: Protein stability (thermal) shift assay, BRD2(2). The note with it: compound 10 μM, protein 2 μM; average of triplicate. How it is done: as §1

For the next experiment, the target named is T5, CREBBP (Homo sapiens, UniProt Q92793).
T5 construct: small thermal shits (1.0–1.3 °C) for the bromodomain of CREBBP; made in house
Briefly: Protein stability (thermal) shift assay, CREBBP. The note with it: compound 10 μM, protein 2 μM; average of triplicate; read-out: ΔTm Shift, CREBBP. How it is done:
as §1

Another experiment concerns the target T6, BRD3(2) (Homo sapiens, UniProt Q15059).
T6 construct: made in house
The experiment can be described thus: Protein stability (thermal) shift assay, BRD3(2). The note with it: compound 10 μM, protein 2 μM; average of triplicate. How it is done:
as §1

A further experiment addresses T7, BRD3(1) (Homo sapiens, UniProt Q15059).
T7 construct: Fragments were tested in a thermal shift assay against bromodomains of the BET subfamily; made in house
Briefly: Protein stability (thermal) shift assay, BRD3(1). The note with it: compound 10 μM, protein 2 μM; average of triplicate. How it is done: as §1

The target of the next experiment is T8, PCAF (Homo sapiens, UniProt Q92831).
T8 construct: representative BRDs from other structural subfamilies (family I, PCAF); made in house
T8 sequence (Q92831 723-827 limits assumed): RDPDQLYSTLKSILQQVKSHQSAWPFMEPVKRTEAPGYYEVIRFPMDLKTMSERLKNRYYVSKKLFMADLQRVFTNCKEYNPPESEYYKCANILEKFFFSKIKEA
Briefly: Protein stability (thermal) shift assay, PCAF. The note with it: compound 10 μM, protein 2 μM; average of triplicate. How it is done: as §1

For another experiment, the target named is T9, BRDT(2) (Homo sapiens, UniProt Q58F21).
T9 construct: made in house
Briefly: Protein stability (thermal) shift assay, BRDT(2). The note with it: compound 10 μM, protein 2 μM; average of triplicate; read-out: ΔTm Shift, BRDT(2). How it is done: as §1

In a further experiment the target is T10, BRD4(2) (Homo sapiens, UniProt O60885).
T10 construct: made in house
Briefly: Protein stability (thermal) shift assay, BRD4(2). The note with it: compound 10 μM, protein 2 μM; average of triplicate. How it is done:
as §1

The next experiment has as its target T11, BRDT(1) (Homo sapiens, UniProt Q58F21).
T11 construct: made in house
Briefly: Protein stability (thermal) shift assay, BRDT(1). Conditions: compound 10 μM, protein 2 μM; average of triplicate. How it is done:
as §1

For another experiment, the target named is T12, BRD2(1) (Homo sapiens, UniProt P25440).
T12 construct: Fragments were tested in a thermal shift assay against bromodomains of the BET subfamily; made in house
The experiment can be described thus: Protein stability (thermal) shift assay, BRD2(1). The note with it: compound 10 μM, protein 2 μM; average of triplicate. How it is done:
as §1

A further experiment addresses T13, BRD9 (Homo sapiens, UniProt Q9H8M2).
T13 construct: made in house
T13 sequence (Q9H8M2 136-240 limits assumed): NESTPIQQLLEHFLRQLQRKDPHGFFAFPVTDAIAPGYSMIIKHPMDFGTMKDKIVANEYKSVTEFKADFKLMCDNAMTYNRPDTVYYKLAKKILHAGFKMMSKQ
The experiment can be described thus: Protein stability (thermal) shift assay, BRD9. The note with it: compound 10 μM, protein 2 μM; average of triplicate; read-out: ΔTm Shift, BRD9. How it is done: as §1

The values below come from PMC4403932 (Journal of Medicinal Chemistry, 2015).

T7 sequence (Q15059 34-140 limits assumed): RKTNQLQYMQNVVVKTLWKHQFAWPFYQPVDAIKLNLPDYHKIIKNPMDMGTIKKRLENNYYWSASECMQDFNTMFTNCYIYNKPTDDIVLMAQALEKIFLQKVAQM
T3 sequence (Q86U86 653-763 limits assumed): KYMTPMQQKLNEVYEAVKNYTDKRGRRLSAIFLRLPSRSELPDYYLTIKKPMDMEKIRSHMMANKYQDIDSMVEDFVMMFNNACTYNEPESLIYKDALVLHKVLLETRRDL
T12 sequence (P25440 74-180 limits assumed): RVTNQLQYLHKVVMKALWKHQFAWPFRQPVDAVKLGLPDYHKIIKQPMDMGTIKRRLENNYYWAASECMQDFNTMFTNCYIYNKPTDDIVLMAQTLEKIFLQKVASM
T6 sequence (Q15059 306-415 limits assumed): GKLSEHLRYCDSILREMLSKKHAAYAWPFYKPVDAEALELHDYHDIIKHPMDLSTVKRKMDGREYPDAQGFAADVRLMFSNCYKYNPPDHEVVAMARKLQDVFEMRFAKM
T5 sequence (Q92793 1085-1192 limits assumed): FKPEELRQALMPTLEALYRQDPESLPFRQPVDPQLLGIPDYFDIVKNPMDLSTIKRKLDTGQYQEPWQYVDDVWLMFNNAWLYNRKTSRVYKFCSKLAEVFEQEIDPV
T4 sequence (P25440 344-453 limits assumed): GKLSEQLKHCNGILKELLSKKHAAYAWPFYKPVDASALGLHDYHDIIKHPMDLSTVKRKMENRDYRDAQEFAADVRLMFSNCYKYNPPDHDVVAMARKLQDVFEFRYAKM

Consider `Clc1nc(Cl)c2nc[nH]c2n1` [Compound 1, 2,6-dichloro-9H-purine], for which the ΔTm at 10 µM at BAZ2B is -0.1 °C; on BRD4(1), 1.6 °C; at PB1(5), 1.4 °C; on BRD2(2), -0.374 °C; on CREBBP it was 1.6 °C; on BRD3(2) it was -0.159 °C. For the same compound, the ΔTm at 10 µM at BRD3(1) was 0.7 °C; at PCAF, -0.8 °C; at BRDT(2) it was -0.234 °C; at BRD4(2), 0.5 °C; at BRDT(1), -0.8 °C; at BRD2(1), 0.361 °C.
Consider `COc1ccc(-c2nc(N)nc3[nH]cnc23)cc1` [Compound 3b, 2-Amino-6-(4-methoxyphenyl)-9H-purine], for which the ΔTm at 10 µM at BAZ2B is 0.00333 °C; on BRD4(1), 0.223 °C; at BRD9, 0 °C; at PB1(5) it was -0.08 °C; at BRD2(2) it was 0.337 °C; at CREBBP, 0.663 °C. Further, the ΔTm at 10 µM on BRD3(2) is 0.4 °C; at BRD3(1) it was -0.06 °C; at PCAF, 0.0867 °C; at BRDT(2), -0.167 °C; on BRD4(2), 0.0133 °C; at BRDT(1) it was -0.133 °C. Besides, on BRD2(1), the ΔTm at 10 µM is -0.253 °C.
Take `Nc1nc(-c2ccc(Oc3ccccc3)cc2)c2nc[nH]c2n1` [Compound 3d, 2-Amino-6-(4-phenoxyphenyl)-9H-purine]: the ΔTm at 10 µM turned out to be 0.273 °C at BAZ2B; 0.533 °C on BRD4(1); 0.847 °C at BRD9; 0.0567 °C at PB1(5); 0.5 °C on BRD2(2); 0.6 °C at CREBBP. The ΔTm at 10 µM was 0.7 °C at BRD3(2); -0.127 °C on BRD3(1); 0.2 °C on PCAF; 0.3 °C on BRDT(2); 0.5 °C at BRD4(2); 0.253 °C on BRDT(1). The ΔTm at 10 µM on BRD2(1) is -0.0833 °C.
`Nc1nc(-c2ccc(COc3cccc(C(F)(F)F)c3)cc2)c2nc[nH]c2n1` [Compound 3g, 2-Amino-6-(4-(3′-(trifluoromethyl)phenoxymethyl)phenyl)-9H-purine]: the ΔTm at 10 µM was -1 °C at BAZ2B; -0.18 °C on BRD4(1); -0.9 °C at BRD9; 0.339 °C at PB1(5); 0.459 °C on BRD2(2); 0.363 °C at CREBBP. The ΔTm at 10 µM was 0.215 °C at BRD3(2); -0.125 °C on BRD3(1); 0.1 °C on PCAF; 0.271 °C on BRDT(2); -7.9 °C on BRD4(2); -0.322 °C at BRDT(1). Also, the ΔTm at 10 µM on BRD2(1) was -0.5 °C.
As to `COCCc1ccc(OCc2ccc(-c3nc(N)nc4[nH]cnc34)cc2)cc1` [Compound 3h, 2-Amino-6-(4-((4′-(2-methoxyethyl)phenoxy)methyl)phenyl)-9H-purine], the ΔTm at 10 µM on BAZ2B was -0.127 °C; at BRD4(1) it was 0.6 °C; at BRD9 it was -0.532 °C; at PB1(5), 0.5 °C; on BRD2(2) it was 1.2 °C; on CREBBP it was 1 °C. Also, the ΔTm at 10 µM on BRD3(2) was 2 °C; on BRD3(1), 0.5 °C; on PCAF, -0.2 °C; on BRDT(2), 0.7 °C; at BRD4(2), -2.8 °C; at BRDT(1) it was 0.528 °C. The ΔTm at 10 µM at BRD2(1) was 0.354 °C.
On to `Nc1nc(-c2ccc(OCc3ccccc3)c(Cl)c2)c2nc[nH]c2n1` [Compound 4a, 2-Amino-6-(4-benzyloxy-3-chlorophenyl)-9H-purine], for which the ΔTm at 10 µM at BAZ2B is -0.367 °C; on BRD4(1), -0.15 °C; on BRD9 it was -1.7 °C; at PB1(5) it was 0.536 °C; at BRD2(2), -0.5 °C; at CREBBP, 0.9 °C. Further, the ΔTm at 10 µM on BRD3(2) is -0.092 °C; on BRD3(1) it was -0.252 °C; at PCAF, -0.2 °C; at BRDT(2), 0.224 °C; at BRD4(2), -2.6 °C; at BRDT(1), -0.0553 °C. In addition, the ΔTm at 10 µM on BRD2(1) is -0.5 °C.
Regarding `COc1cc(COc2ccc(-c3nc(N)nc4[nH]cnc34)cc2Cl)cc(OC)c1` [Compound 4b, 2-Amino-6-(3-chloro-4-(3′,5′-dimethoxybenzyloxy)phenyl)-9H-purine], the ΔTm at 10 µM at BAZ2B was 2.3 °C; at BRD4(1) it was 0.54 °C; at BRD9 it was -2 °C; on PB1(5) it was 0.7 °C; on BRD2(2), 0.159 °C; on CREBBP, -0.04 °C. The ΔTm at 10 µM at BRD3(2) was -0.379 °C; on BRD3(1), 0.445 °C; on PCAF, 1.6 °C; on BRDT(2), 0.7 °C; on BRD4(2), -2.9 °C; on BRDT(1), 0.658 °C. Besides, the ΔTm at 10 µM at BRD2(1) is -0.113 °C.
Regarding `Nc1nc(-c2ccc3c(c2)OCCO3)c2nc[nH]c2n1` [Compound 4c, 2-Amino-6-(2,3-dihydrobenzo[b][1,4]dioxin-6-yl)-9H-purine], the ΔTm at 10 µM at BAZ2B was -0.9 °C; on BRD4(1), 0.4 °C; at BRD9 it was 0.8 °C; on PB1(5), -1.6 °C; on BRD2(2) it was -0.0273 °C; at CREBBP it was -1.5 °C. Also, the ΔTm at 10 µM was 0.9 °C at BRD3(2); 0.0747 °C on BRD3(1); -1.2 °C at PCAF; -0.166 °C on BRDT(2); -1.3 °C at BRD4(2); -0.125 °C at BRDT(1). At BRD2(1), the ΔTm at 10 µM is -0.3 °C.
For the compound `Nc1nc(-c2cccc(OCc3ccc(Cl)cc3)c2)c2nc[nH]c2n1` [Compound 4d, 2-Amino-6-(3-(4′-chlorobenzyloxy)phenyl)-9H-purine], the ΔTm at 10 µM on BAZ2B amounted to 0.653 °C; at BRD4(1), 1.5 °C; at PB1(5) it was 0.553 °C; at BRD2(2), 1.4 °C; on CREBBP, 1.5 °C; at BRD3(2), 1.2 °C. The ΔTm at 10 µM on BRD3(1) turned out to be 0.7 °C; on PCAF it was 0.7 °C; at BRDT(2) it was 1.2 °C; on BRD4(2), 1 °C; at BRDT(1), 0.7 °C; on BRD2(1), 0.643 °C.
`CCCCOc1cc(Br)cc(-c2nc(N)nc3[nH]cnc23)c1` [Compound 5a, 2-Amino-6-(3-bromo-5-butoxyphenyl)-9H-purine]: the ΔTm at 10 µM came out at 1.1 °C at BAZ2B; 1.6 °C on BRD4(1); 1.1 °C at BRD9; 1.1 °C on PB1(5); 1.7 °C on BRD2(2); 1.7 °C at CREBBP. Also, the ΔTm at 10 µM at BRD3(2) is 1.5 °C; on BRD3(1), 0.9 °C; at PCAF it was 1.3 °C; on BRDT(2), 1.8 °C; on BRD4(2), 1.3 °C; on BRDT(1) it was 1 °C. For the same compound, the ΔTm at 10 µM at BRD2(1) worked out at 0.7 °C.
